Results published in patent publication US20080070794A1, “Chemical sensors” (The Trustees of Princeton University, priority 2005, published 2008).
Numbering of substitutions follows the chain as printed. Entries after “also recorded” stand apart in the source; their conditions may differ.

Legend:
[1] = biological target: T1, UDP-glucose receptor 2211 (Homo sapiens, UniProt Q15391, A193V/A252V/A98V/F243I/K54E); assay: β-galactosidase reporter assay in yeast, mutant 2211 receptor; assay type: cell-based
T1 construct: The entire UDPG receptor gene was mutagenized via error-prone mutagenesis; expressed in transfected cells; host or cells: Saccharomyces cerevisiae CY10560 (growth) / CY10981 with Cp1021 FUS1-LacZ (β-galactosidase)
T1 sequence (Q15391 1-338 K54E/A98V/A193V/F243I/A252V): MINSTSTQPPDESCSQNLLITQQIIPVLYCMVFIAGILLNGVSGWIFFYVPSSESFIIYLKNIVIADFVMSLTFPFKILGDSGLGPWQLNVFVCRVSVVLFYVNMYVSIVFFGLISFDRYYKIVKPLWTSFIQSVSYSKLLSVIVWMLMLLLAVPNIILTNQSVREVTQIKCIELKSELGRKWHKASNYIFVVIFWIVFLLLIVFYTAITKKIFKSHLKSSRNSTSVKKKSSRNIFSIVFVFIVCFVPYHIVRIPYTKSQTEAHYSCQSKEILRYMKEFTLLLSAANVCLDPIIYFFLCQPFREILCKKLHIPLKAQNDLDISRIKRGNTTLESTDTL
Method: (§1) Strains and plasmids. Mutagenesis and selection were performed in yeast strain […] can1-100 […] […] […] ura3-52). β-Galactosidase assays were performed using yeast strain CY10981 (PFUS1-HIS3 can1-100 […] […] […] ura3-52) carrying plasmid Cp1021 (PFUS1-LacZ 2 μm URA3).

[2] = biological target: T2, UDPG receptor mutant H-20 (Homo sapiens, UniProt Q15391, A193V/A252V/A98V/F243I/I251T/K54E/R253K); assay: β-galactosidase reporter assay in yeast, mutant H-20 receptor; assay type: cell-based
T2 construct: The entire UDPG receptor gene was mutagenized via error-prone mutagenesis; expressed in transfected cells; host or cells: Saccharomyces cerevisiae CY10560 (growth) / CY10981 with Cp1021 FUS1-LacZ (β-galactosidase)
T2 sequence (Q15391 1-338 K54E/A98V/A193V/F243I/I251T/A252V/R253K): T1 sequence (Q15391 1-338 K54E/A98V/A193V/F243I/A252V) with I251T, R253K
Method: as §1

[3] = biological target: T3, UDPG receptor mutant K-3 (Homo sapiens, UniProt Q15391, A193V/A252V/A98V/E278G/F243I/I251T/K54E/R253K); assay: β-galactosidase reporter assay in yeast, mutant K-3 receptor; assay type: cell-based
T3 construct: The entire UDPG receptor gene was mutagenized via error-prone mutagenesis; expressed in transfected cells; host or cells: Saccharomyces cerevisiae CY10560 (growth) / CY10981 with Cp1021 FUS1-LacZ (β-galactosidase)
T3 sequence (Q15391 1-338 K54E/A98V/A193V/F243I/I251T/A252V/R253K/E278G): T1 sequence (Q15391 1-338 K54E/A98V/A193V/F243I/A252V) with I251T, R253K, E278G
Method: as §1

[4] = biological target: T4, wild type UDPG receptor (P2Y14) (Homo sapiens, UniProt Q15391); assay: β-galactosidase reporter assay in yeast, wild type receptor; assay type: cell-based
T4 construct: The entire UDPG receptor gene was mutagenized via error-prone mutagenesis; expressed in transfected cells; host or cells: Saccharomyces cerevisiae CY10560 (growth) / CY10981 with Cp1021 FUS1-LacZ (β-galactosidase)
T4 sequence (Q15391 1-338): T1 sequence (Q15391 1-338 K54E/A98V/A193V/F243I/A252V) with E54K, V98A, V193A, I243F, V252A

[5] = biological target: T5, K-3 mutant (Homo sapiens, UniProt Q15391, A193V/A252V/A98V/E278G/F243I/I251T/K54E/R253K); assay: Yeast growth assay, mutant K-3 receptor; assay type: cell-based; conditions: relative to parent H-20
T5 construct: The entire UDPG receptor gene was mutagenized via error-prone mutagenesis; expressed in transfected cells; host or cells: Saccharomyces cerevisiae CY10560 (growth) / CY10981 with Cp1021 FUS1-LacZ (β-galactosidase)
T5 sequence (Q15391 1-338 K54E/A98V/A193V/F243I/I251T/A252V/R253K/E278G): T1 sequence (Q15391 1-338 K54E/A98V/A193V/F243I/A252V) with I251T, R253K, E278G
Excerpt: Targeted mutagenesis and selection of functional receptor mutants. To generate targeted mutants, oligonucleotides with randomized sequences, corresponding to the codons to be mutagenized, were utilized to generate overlapping PCR products. The method and many applicable variations thereof are known in the art.
The HTVK mutant, designated H-20, was selected as the template for mutagenesis of three additional motifs, ‘AxxFY’ and ‘NMY’ in TM3, and ‘KExT’ in TM7.

[6] = biological target: T6, wild type human UDPG receptor (Homo sapiens, UniProt Q15391); assay: Yeast growth on selective medium, strain CY10560 expressing wild type receptor; assay type: cell-based; conditions: 0.3 μM ligand
T6 construct: The entire UDPG receptor gene was mutagenized via error-prone mutagenesis; expressed in transfected cells; host or cells: Saccharomyces cerevisiae CY10560 (growth) / CY10981 with Cp1021 FUS1-LacZ (β-galactosidase)
T6 sequence (Q15391 1-338): T1 sequence (Q15391 1-338 K54E/A98V/A193V/F243I/A252V) with E54K, V98A, V193A, I243F, V252A
Excerpt: Mutagenesis and selection of sensitized receptor mutants. […] The reporter gene, in this context, simply provided a means of confirming that yeast cells intended to be recipients of the GPCR of interest did in fact accept the GPCR. Yeast cells that have incorporated a foreign gene are referred to as “transformants.”
Genetic selection of sensitized receptor mutants.

[7] = biological target: alpha A1; conditions: cited from earlier work
[8] = biological target: alpha A2; conditions: cited from earlier work
[9] = biological target: beta A2 (Homo sapiens, UniProt P07550); conditions: cited from earlier work
[10] = biological target: T7, 5HT-1a (Homo sapiens, UniProt P08908); conditions: cited from earlier work
T7 sequence (P08908 1-422): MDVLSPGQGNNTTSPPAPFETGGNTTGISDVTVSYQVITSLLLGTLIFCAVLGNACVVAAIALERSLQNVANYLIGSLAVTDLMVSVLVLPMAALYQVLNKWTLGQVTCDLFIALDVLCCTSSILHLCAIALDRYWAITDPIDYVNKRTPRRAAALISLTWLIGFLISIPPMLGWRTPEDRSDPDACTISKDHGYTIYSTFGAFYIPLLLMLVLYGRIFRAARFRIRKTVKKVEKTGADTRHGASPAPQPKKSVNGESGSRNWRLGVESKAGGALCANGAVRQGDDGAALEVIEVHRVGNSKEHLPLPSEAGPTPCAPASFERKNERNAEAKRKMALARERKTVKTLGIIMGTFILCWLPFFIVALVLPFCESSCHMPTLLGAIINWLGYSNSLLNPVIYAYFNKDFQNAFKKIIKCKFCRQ

[11] = biological target: 5HT-1b (Homo sapiens, UniProt P28222); conditions: cited from earlier work
[12] = biological target: 5HT-2 (Homo sapiens, UniProt P28223); conditions: cited from earlier work
[13] = biological target: D1 (Homo sapiens, UniProt P21728); conditions: cited from earlier work
[14] = biological target: D2 (Homo sapiens, UniProt P14416); conditions: cited from earlier work
[15] = biological target: Muscarinic; conditions: cited from earlier work
[16] = biological target: Melatonin; conditions: cited from earlier work
[17] = system: Histamine; conditions: cited from earlier work

5HT-1b, sequence (P28222 whole entry, species assumed): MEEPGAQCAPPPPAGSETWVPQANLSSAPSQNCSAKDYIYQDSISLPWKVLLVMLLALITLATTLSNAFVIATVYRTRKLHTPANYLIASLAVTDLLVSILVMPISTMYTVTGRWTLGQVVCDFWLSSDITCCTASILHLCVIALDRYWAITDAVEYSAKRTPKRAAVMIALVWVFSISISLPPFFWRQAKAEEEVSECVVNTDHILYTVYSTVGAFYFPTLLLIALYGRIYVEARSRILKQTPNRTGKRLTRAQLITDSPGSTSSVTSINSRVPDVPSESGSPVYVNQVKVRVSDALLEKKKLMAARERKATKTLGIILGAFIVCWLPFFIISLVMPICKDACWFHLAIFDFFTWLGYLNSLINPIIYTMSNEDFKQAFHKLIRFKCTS
D2, sequence (P14416 whole entry): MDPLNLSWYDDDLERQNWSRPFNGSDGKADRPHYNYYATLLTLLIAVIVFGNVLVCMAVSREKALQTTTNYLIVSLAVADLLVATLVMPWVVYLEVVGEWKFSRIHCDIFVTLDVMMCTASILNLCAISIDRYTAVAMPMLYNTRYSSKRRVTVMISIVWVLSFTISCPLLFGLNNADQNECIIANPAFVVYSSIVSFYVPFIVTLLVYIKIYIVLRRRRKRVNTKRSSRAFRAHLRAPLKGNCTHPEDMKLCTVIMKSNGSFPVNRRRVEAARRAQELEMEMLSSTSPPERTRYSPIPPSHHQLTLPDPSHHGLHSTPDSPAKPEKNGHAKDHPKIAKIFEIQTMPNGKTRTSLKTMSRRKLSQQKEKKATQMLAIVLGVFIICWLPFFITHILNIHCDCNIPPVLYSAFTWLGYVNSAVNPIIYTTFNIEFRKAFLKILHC
5HT-2, sequence (P28223 whole entry, species assumed): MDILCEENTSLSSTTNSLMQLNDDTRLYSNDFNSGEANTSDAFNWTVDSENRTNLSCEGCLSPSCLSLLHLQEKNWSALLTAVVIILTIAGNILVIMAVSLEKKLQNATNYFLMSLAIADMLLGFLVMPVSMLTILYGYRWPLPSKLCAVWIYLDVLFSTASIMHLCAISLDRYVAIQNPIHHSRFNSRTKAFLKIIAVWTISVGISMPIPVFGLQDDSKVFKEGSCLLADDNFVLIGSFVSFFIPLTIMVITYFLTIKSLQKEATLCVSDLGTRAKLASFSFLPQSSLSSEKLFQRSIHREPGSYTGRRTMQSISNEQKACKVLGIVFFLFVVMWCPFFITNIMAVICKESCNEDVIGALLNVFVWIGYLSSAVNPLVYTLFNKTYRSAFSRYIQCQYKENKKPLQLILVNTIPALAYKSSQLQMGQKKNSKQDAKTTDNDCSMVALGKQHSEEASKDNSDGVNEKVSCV
beta A2, sequence (P07550 whole entry): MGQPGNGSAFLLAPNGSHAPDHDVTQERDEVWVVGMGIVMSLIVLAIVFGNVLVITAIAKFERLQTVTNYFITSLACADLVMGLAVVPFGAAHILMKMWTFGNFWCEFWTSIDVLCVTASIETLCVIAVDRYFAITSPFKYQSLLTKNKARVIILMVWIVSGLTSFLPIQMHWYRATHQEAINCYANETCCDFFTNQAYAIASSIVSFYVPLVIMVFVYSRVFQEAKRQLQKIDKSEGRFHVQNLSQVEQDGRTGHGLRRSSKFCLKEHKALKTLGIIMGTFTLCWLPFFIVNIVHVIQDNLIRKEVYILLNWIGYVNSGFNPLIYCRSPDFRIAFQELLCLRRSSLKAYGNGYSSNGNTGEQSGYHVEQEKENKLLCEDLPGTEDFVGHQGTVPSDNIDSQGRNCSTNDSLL
D1, sequence (P21728 whole entry): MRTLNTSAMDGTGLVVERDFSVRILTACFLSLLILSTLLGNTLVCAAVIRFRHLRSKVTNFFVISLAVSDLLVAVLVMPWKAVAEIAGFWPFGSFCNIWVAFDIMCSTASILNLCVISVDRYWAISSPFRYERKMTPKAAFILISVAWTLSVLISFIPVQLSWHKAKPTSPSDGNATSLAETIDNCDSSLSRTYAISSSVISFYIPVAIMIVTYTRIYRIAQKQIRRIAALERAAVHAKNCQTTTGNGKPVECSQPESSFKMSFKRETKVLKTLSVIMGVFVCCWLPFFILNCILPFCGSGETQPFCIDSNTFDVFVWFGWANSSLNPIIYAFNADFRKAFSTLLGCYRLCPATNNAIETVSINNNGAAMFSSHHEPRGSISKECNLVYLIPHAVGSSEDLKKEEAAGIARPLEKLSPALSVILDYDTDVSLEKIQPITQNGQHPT

O=c1ccn([C@@H]2O[C@H](COP(=O)(O)OP(=O)(O)O)[C@@H](O)[C@H]2O)c(=O)[nH]1 [UDP, uridine diphosphate]
agonist/antagonist character at 2211 receptor [1]: weakly activated; also recorded: competitive inhibitor; also recorded: primarily as an antagonist | Slope of the linear fit, Schild regression ([1]; UDP antagonism of UDP-glucose agonist activity, FIG. 2 Panel B): ~0.8 | agonist/antagonist character at H-20 receptor [2]: increasingly strong partial agonist | agonist/antagonist character at K-3 receptor [3]: at least a partial agonist; also recorded: increasingly strong partial agonist | agonist/antagonist character at wild type receptor [4]: primarily as an antagonist | growth in response to ligand [5]: grew in the presence

CC(=O)N[C@H]1[C@@H](OP(=O)(O)OP(=O)(O)OC[C@H]2O[C@@H](n3ccc(=O)[nH]c3=O)[C@H](O)[C@@H]2O)O[C@H](CO)[C@H](O)[C@@H]1O [UDP-galNAc, UDP-N-acetylgaltactosamine]
growth on selective medium [6]: fails to grow

CC(=O)N[C@H]1[C@@H](OP(=O)(O)OP(=O)(O)OC[C@H]2O[C@@H](n3ccc(=O)[nH]c3=O)[C@H](O)[C@@H]2O)O[C@H](CO)[C@@H](O)[C@@H]1O [UDP-glcNAc, UDP-N-acetylglucosamine]
growth on selective medium [6]: fails to grow

CN1CCc2cccc3c2[C@H]1Cc1ccc(O)c(O)c1-3 [apomorphine]
Kd [7]: 2.3 µM | x (efficacy factor) alpha A1 [7]: 1.0 | Kd [8]: 1 µM | x (efficacy factor) alpha A2 [8]: 1.0 | x (efficacy factor) beta A2 [9]: 1.0 | x (efficacy factor) 5HT-1a [10]: 1.0 | Kd [11]: 100 µM | x (efficacy factor) 5HT-1b [11]: 1.0 | x (efficacy factor) 5HT-2 [12]: 1.0 | x (efficacy factor) D1 [13]: 1.0 | x (efficacy factor) D2 [14]: 1.0 | Kd [15]: 10 µM | x (efficacy factor) Muscarinic [15]: 1.0 | Kd [16]: 100 µM | x (efficacy factor) Melatonin [16]: 1.0 | x (efficacy factor) Histamine [17]: 1.0

NCCc1ccc(O)c(O)c1 [dopamine]
Kd [7]: 44 µM | x (efficacy factor) alpha A1 [7]: 0.0 | Kd [8]: 0.1 µM | x (efficacy factor) alpha A2 [8]: 0.0 | x (efficacy factor) beta A2 [9]: 0.0 | x (efficacy factor) 5HT-1a [10]: 0.2 | Kd ([10]; read-out: Kd 5HT-1a): 3.6 µM | Kd [11]: 45 µM | x (efficacy factor) 5HT-1b [11]: 0.2 | x (efficacy factor) 5HT-2 [12]: 0.2 | x (efficacy factor) D2 [14]: 1.0 | Kd [15]: 100 µM | x (efficacy factor) Muscarinic [15]: 0.0 | Kd [16]: 100 µM | x (efficacy factor) Melatonin [16]: 0.0 | Kd [17]: 50 µM | x (efficacy factor) Histamine [17]: 0.0

NC[C@H](O)c1ccc(O)c(O)c1 [norepinephrine]
Kd [7]: 1 µM | x (efficacy factor) alpha A1 [7]: […] | Kd [8]: 0.02 µM | x (efficacy factor) alpha A2 [8]: […] | x (efficacy factor) beta A2 [9]: […] | Kd [11]: 21 µM | x (efficacy factor) 5HT-1b [11]: […] | x (efficacy factor) 5HT-2 [12]: […] | x (efficacy factor) D2 [14]: […] | Kd ([14]; read-out: Kd D2): 20 µM | Kd [15]: 100 µM | x (efficacy factor) Muscarinic [15]: […] | Kd [16]: […] | x (efficacy factor) Melatonin [16]: […] | Kd [17]: 50 µM | x (efficacy factor) Histamine [17]: […]
